Results on 26 compounds are retold here after US10336762B2 (priority 2017, dated 2019).

One may read the IC50 as the point on the concentration scale where inhibition reaches its midpoint. Low values mean greater potency, high ones weaker potency. Usually EC50 stands for the concentration giving half of the maximal effect.

One test addresses IRAK4 enzyme (Homo sapiens (Human), UniProt Q9NWZ3). Nature of the test: biochemical. The conditions noted are these: IRAK4 enzyme, TR-FRET, 500 μM ATP. Format: biochemical. (In general: Time-resolved FRET reads energy transfer from a long-lived donor to a nearby acceptor.)
The subject of the next test is TNFα. The experiment in a line: cells. The format is cell-based, human. The conditions noted are these: Homo sapiens, Monocyte, LPS-stimulated human monocytes, TNFα content; read-out: EC50 TNF.

The structures appear in SMILES notation.

Chain of IRAK4 enzyme (Q9NWZ3 whole entry): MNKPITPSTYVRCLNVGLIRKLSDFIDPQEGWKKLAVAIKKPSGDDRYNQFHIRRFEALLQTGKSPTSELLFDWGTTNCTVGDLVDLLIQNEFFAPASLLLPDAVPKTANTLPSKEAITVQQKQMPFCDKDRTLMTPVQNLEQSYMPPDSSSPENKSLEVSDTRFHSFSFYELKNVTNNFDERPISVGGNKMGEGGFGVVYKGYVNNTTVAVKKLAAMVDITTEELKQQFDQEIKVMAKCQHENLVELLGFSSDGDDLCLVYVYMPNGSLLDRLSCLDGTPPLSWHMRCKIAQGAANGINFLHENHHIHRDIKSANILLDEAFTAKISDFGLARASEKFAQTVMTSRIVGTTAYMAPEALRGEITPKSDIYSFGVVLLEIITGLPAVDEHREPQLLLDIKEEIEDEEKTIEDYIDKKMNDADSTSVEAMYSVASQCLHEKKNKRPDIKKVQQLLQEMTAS

Turning to `CC(C)(O)[C@H](F)CNC(=O)c1cnc(-c2ccc3cc(C#N)cnn23)cc1Nc1cnn(C(F)F)c1` [Example 48, (R)-6-(3-cyanopyrrolo[1,2-b]pyridazin-7-yl)-4-((1-(difluoromethyl)-1H-pyrazol-4-yl)amino)-N-(2-fluoro-3-hydroxy-3-methylbutyl)nicotinamide], on IRAK4 enzyme, the IC50 is less than 1 nM. Besides, the EC50 with TNFα worked out at 28 nM.

As for `CC(C)(O)[C@H](F)CNC(=O)c1cnc(-c2ccc3cc(C#N)cnn23)cc1Nc1cnn(CC(F)(F)F)c1` [Example 49, (R)-6-(3-cyanopyrrolo[1,2-b]pyridazin-7-yl)-N-(2-fluoro-3-hydroxy-3-methylbutyl)-4-((1-(2,2,2-trifluoroethyl)-1H-pyrazol-4-yl)amino)nicotinamide], the IC50 on IRAK4 enzyme was less than 1 nM. The EC50 in the test on TNFα turned out to be 8 nM.

As for `CC(C)(O)[C@H](F)CNC(=O)c1cnc(-c2ccc3cc(C#N)cnn23)cc1NC1CC2CCC(C1)O2` (stereo partly drawn) [Example 50, 4-(8-oxabicyclo[3.2.1]octan-3-ylamino)-6-(3-cyanopyrrolo[1,2-b]pyridazin-7-yl)-N-((R)-2-fluoro-3-hydroxy-3-methylbutyl) nicotinamide], the IC50 at IRAK4 enzyme amounted to 3 nM. In addition, in the test with TNFα, the EC50 was determined as 351 nM.

In turn, `CC(C)(O)[C@H](F)CNC(=O)c1cnc(-c2ccc3cc(C#N)cnn23)cc1N[C@@H]1CCN(S(C)(=O)=O)C1` [Example 53, 6-(3-cyanopyrrolo[1,2-b]pyridazin-7-yl)-N-((R)-2-fluoro-3-hydroxy-3-methylbutyl)-4-(((R)-1-(methylsulfonyl)pyrrolidin-3-yl)amino)nicotinamide] had an IC50 against IRAK4 enzyme of less than 1 nM. Further, the EC50 in the test on TNFα came out at 65 nM.

In turn, `CC(C)(O)[C@H](F)CNC(=O)c1cnc(-c2ccc3cc(C#N)cnn23)cc1NC1COC1` [Example 54, (R)-6-(3-cyanopyrrolo[1,2-b]pyridazin-7-yl)-N-(2-fluoro-3-hydroxy-3-methylbutyl)-4-(oxetan-3-ylamino)nicotinamide] registered an IC50 on IRAK4 enzyme of less than 1 nM. For the same compound, in the test with TNFα, the EC50 is 26 nM.

`CCn1cc(Nc2cc(-c3ccc4cc(C#N)cnn34)ncc2C(=O)NC[C@@H](F)C(C)(C)O)cn1` [Example 56, (R)-6-(3-cyanopyrrolo[1,2-b]pyridazin-7-yl)-4-((1-ethyl-1H-pyrazol-4-yl)amino)-N-(2-fluoro-3-hydroxy-3-methylbutyl)nicotinamide] registered an IC50 against IRAK4 enzyme of less than 1 nM. The EC50 in the test on TNFα amounted to 13 nM.

Take `CC(C)(O)[C@H](F)CNC(=O)c1cnc(-c2ccc3cc(C#N)cnn23)cc1N[C@@H]1CCOC[C@@H]1F` [Example 57, 6-(3-cyanopyrrolo[1,2-b]pyridazin-7-yl)-N-((R)-2-fluoro-3-hydroxy-3-methylbutyl)-4-(((3R,4R)-3-fluorotetrahydro-2H-pyran-4-yl)amino)nicotinamide]: the IC50 against IRAK4 enzyme is less than 1 nM. In addition, the EC50 in the test on TNFα came out at 46 nM.

At IRAK4 enzyme, `Cn1cc(Nc2cc(-c3ccc4cc(C#N)cnn34)ncc2C(=O)NC[C@@H](F)C(C)(C)O)nn1` [Example 58, (R)-6-(3-cyanopyrrolo[1,2-b]pyridazin-7-yl)-N-(2-fluoro-3-hydroxy-3-methylbutyl)-4-((1-methyl-1H-1,2,3-triazol-4-yl)amino)nicotinamide] showed a half-maximal inhibitory concentration (IC50) of less than 1 nM. The EC50 in the test with TNFα was determined as 91 nM.

`CC(C)(O)[C@H](F)CNC(=O)c1cnc(-c2ccc3cc(C#N)cnn23)cc1Nc1cnsc1` [Example 59, (R)-6-(3-cyanopyrrolo[1,2-b]pyridazin-7-yl)-N-(2-fluoro-3-hydroxy-3-methylbutyl)-4-(isothiazol-4-ylamino)nicotinamide] yielded an IC50 at IRAK4 enzyme of less than 1 nM. Further, the EC50 with TNFα worked out at 57 nM.

As to `COC(=O)C1CC2(CC(NC(=O)c3cnc(-c4ccc5cc(C#N)cnn45)cc3NC(C)C)C2)C1` (stereo not shown) [Example 60, methyl 6-(6-(3-cyano-pyrrolo[1,2-b]pyridazin-7-yl)-4-(isopropylamino)nicotinamido) spiro[3.3]heptane-2-carboxylate], at IRAK4 enzyme, half-maximal inhibition (IC50) was put at 1 nM. Besides, in the test on TNFα, the EC50 came to 512 nM.

`CC(C)(O)[C@H](F)CNC(=O)c1cnc(-c2ccc3cc(C#N)cnn23)cc1N[C@@H]1CCC[C@@H](O)C1` [Example 61, 6-(3-cyanopyrrolo[1,2-b]pyridazin-7-yl)-N-((R)-2-fluoro-3-hydroxy-3-methylbutyl)-4-(((1R,3R)-3-hydroxycyclohexyl)amino) nicotinamide] returned an IC50 on IRAK4 enzyme of less than 1 nM. Further, in the test on TNFα, the EC50 is 89 nM.

Consider `CO[C@@H]1CCC[C@H](Nc2cc(-c3ccc4cc(C#N)cnn34)ncc2C(=O)NC[C@@H](F)C(C)(C)O)C1` [Example 62, 6-(3-cyanopyrrolo[1,2-b]pyridazin-7-yl)-N-((R)-2-fluoro-3-hydroxy-3-methylbutyl)-4-(((1S,3R)-3-methoxycyclohexyl)amino) nicotinamide], for which, on IRAK4 enzyme, the IC50 is less than 1 nM. In the test with TNFα, the EC50 turned out to be 83 nM.

As for `CC(C)(O)[C@H](F)CNC(=O)c1cnc(-c2ccc3cc(C#N)cnn23)cc1N[C@H]1CCC[C@H](O)C1` [Example 63, 6-(3-cyanopyrrolo[1,2-b]pyridazin-7-yl)-N-((R)-2-fluoro-3-hydroxy-3-methylbutyl)-4-(((1S,3S)-3-hydroxycyclohexyl)amino) nicotinamide], the IC50 at IRAK4 enzyme is less than 1 nM. The EC50 in the test with TNFα came out at 57 nM.

In turn, `CC(C)(O)[C@H](F)CNC(=O)c1cnc(-c2ccc3cc(C#N)cnn23)cc1NC1CCCCC1` [Example 64, (R)-6-(3-cyanopyrrolo[1,2-b]pyridazin-7-yl)-4-(cyclohexylamino)-N-(2-fluoro-3-hydroxy-3-methylbutyl) nicotinamide] registered an IC50 at IRAK4 enzyme of less than 1 nM. The EC50 in the test with TNFα turned out to be 70 nM.

On to `CC(C)(O)[C@H](F)CNC(=O)c1cnc(-c2ccc3cc(C#N)cnn23)cc1N[C@@H]1CCC[C@H](O)C1` [Example 65, 6-(3-cyanopyrrolo[1,2-b]pyridazin-7-yl)-N-((R)-2-fluoro-3-hydroxy-3-methylbutyl)-4-(((1R,3S)-3-hydroxycyclohexyl)amino) nicotinamide], for which the IC50 at IRAK4 enzyme came to 2 nM. Further, in the test on TNFα, the EC50 came to 149 nM.

Take `CC(C)Nc1cc(-c2ccc3cc(C#N)cnn23)ncc1C(=O)NNC(=O)C(C)(C)O` [Example 66, 6-(3-cyanopyrrolo[1,2-b]pyridazin-7-yl)-N′-(2-hydroxy-2-methylpropanoyl)-4-(isopropylamino) nicotinohydrazide]: it took 46 nM to reach half-maximal inhibition against IRAK4 enzyme (IC50). Moreover, the EC50 in the test on TNFα is 458 nM.

As to `CC(C)(O)[C@H](F)CNC(=O)c1cnc(-c2ccc3cc(C#N)cnn23)cc1Nc1cnn(C2CC2)c1` [Example 67, (R)-6-(3-cyanopyrrolo[1,2-b]pyridazin-7-yl)-4-((1-cyclopropyl-1H-pyrazol-4-yl)amino)-N-(2-fluoro-3-hydroxy-3-methylbutyl)nicotinamide], the IC50 at IRAK4 enzyme is less than 1 nM. The EC50 with TNFα was found to be 43 nM.

On to `CC(C)Nc1cc(-c2ccc3cc(C#N)cnn23)ncc1C(=O)NNCC(C)(C)O` [Example 69, 6-(3-cyanopyrrolo[1,2-b]pyridazin-7-yl)-N′-(2-hydroxy-2-methylpropyl)-4-(isopropylamino) nicotinohydrazide], for which, at IRAK4 enzyme, the IC50 was found to be 7 nM. Also, in the test with TNFα, the EC50 is 515 nM.

With `CC(C)(O)[C@H](F)CNC(=O)c1cnc(-c2ccc3cc(C#N)cnn23)cc1Nc1cn[nH]c1` [Example 70, (R)-4-((1H-pyrazol-4-yl)amino)-6-(3-cyano-pyrrolo[1,2-b]pyridazin-7-yl)-N-(2-fluoro-3-hydroxy-3-methylbutyl)nicotinamide], the IC50 against IRAK4 enzyme was less than 1 nM. Further, in the test with TNFα, the EC50 came to 47 nM.

`CC(C)Nc1cc(-c2ccc3cc(C#N)cnn23)ncc1C(=O)NC1CS(=O)(=O)C1` [Example 71, 6-(3-cyanopyrrolo[1,2-b]pyridazin-7-yl)-N-(1,1-dioxidothietan-3-yl)-4-(isopropylamino) nicotinamide] showed an IC50 at IRAK4 enzyme of 9 nM. Moreover, in the test on TNFα, the EC50 came to 298 nM.

At IRAK4 enzyme, `CC(C)Nc1cc(-c2ccc3cc(C#N)cnn23)ncc1C(=O)NCC1CS(=O)(=O)C1` [Example 72, 6-(3-cyanopyrrolo[1,2-b]pyridazin-7-yl)-N-((1,1-dioxidothietan-3-yl)methyl)-4-(isopropylamino) nicotinamide] showed a half-maximal inhibitory concentration (IC50) of 4 nM. Also, in the test with TNFα, the EC50 is 159 nM.

At IRAK4 enzyme, `CC(C)Nc1cc(-c2ccc3cc(C#N)cnn23)ncc1C(=O)NCC1CCS(=O)(=O)C1` (stereo not shown) [Example 73, 6-(3-cyanopyrrolo[1,2-b]pyridazin-7-yl)-N-((1,1-dioxidotetrahydrothiophen-3-yl)methyl)-4-(isopropylamino) nicotinamide] had an IC50 of 3 nM. Moreover, the EC50 in the test on TNFα amounted to 119 nM.

For the compound `CC(C)(O)[C@H](F)CNC(=O)c1cnc(-c2ccc3cc(C#N)cnn23)cc1NCC1CCS(=O)(=O)C1` (stereo partly drawn) [Example 74, 6-(3-cyanopyrrolo[1,2-b]pyridazin-7-yl)-4-(((1,1-dioxidotetrahydrothiophen-3-yl)methyl)amino)-N-((R)-2-fluoro-3-hydroxy-3-methylbutyl) nicotinamide], the half-inhibitory concentration (IC50) on IRAK4 enzyme was 2 nM. For the same compound, the EC50 with TNFα is 1100 nM.

Compound `CC(C)(O)[C@H](F)CNC(=O)c1cnc(-c2ccc3cc(C#N)cnn23)cc1NC1CCS(=O)(=O)CC1` [Example 75, (R)-6-(3-cyanopyrrolo[1,2-b]pyridazin-7-yl)-4-((1,1-dioxidotetrahydro-2H-thiopyran-4-yl)amino)-N-(2-fluoro-3-hydroxy-3-methylbutyl) nicotinamide] gave an IC50 against IRAK4 enzyme of 3 nM. The EC50 with TNFα is 544 nM.

Take `CC(C)(O)[C@H](F)CNC(=O)c1cnc(-c2ccc3cc(C#N)cnn23)cc1NC1CCS(=O)(=O)C1` (stereo partly drawn) [Example 76, 6-(3-cyanopyrrolo[1,2-b]pyridazin-7-yl)-4-((1,1-dioxidotetrahydrothiophen-3-yl)amino)-N-((R)-2-fluoro-3-hydroxy-3-methylbutyl)nicotinamide]: the IC50 against IRAK4 enzyme was found to be 1 nM. Besides, in the test with TNFα, the EC50 was found to be 348 nM.

At IRAK4 enzyme, `CC(C)(O)[C@H](F)CNC(=O)c1cnc(-c2ccc3cc(C#N)cnn23)cc1NC1CS(=O)(=O)C1` [Example 77, (R)-6-(3-cyanopyrrolo[1,2-b]pyridazin-7-yl)-4-((1,1-dioxidothietan-3-yl)amino)-N-(2-fluoro-3-hydroxy-3-methylbutyl)nicotinamide] registered an IC50 of 2 nM. Moreover, the EC50 in the test on TNFα is 352 nM.
